Laboratory results reported in patent US20250161184A1, “NOVEL USE” (DSM IP Assets B.V., priority 2022, published 2025).
“Also recorded” adds a separate entry of the source.

Test system: Normal human dermal fibroblasts
Assay: in vitro dermal fibroblast collagen assay (collagen 1 immunolabeling, flow cytometry)
Format: cell-based
Details: for Collagen 1 expression relative to untreated (%): 72 hours treatment, mean, n = 4, untreated = 100%; for effect on collagen type 1 (result in words): normal human dermal fibroblasts, 72 hours, several concentrations
Description: The neutral core human milk oligosaccharides LNT and LNnT were evaluated for their effect on collagen type 1. This was done using an in vitro dermal fibroblast collagen assay. […] For comparative reasons, also another human milk oligosaccharide was tested, i.e. 6′-silalyllactose (6′SL).
Normal human dermal fibroblasts were seeded in cell culture medium (Dulbecco's Modified Eagle Medium supplemented with 10% serum and 1% antibiotics) and allowed to adhere in a humidified cell incubator maintaining 37° C. and 5% CO2. Afterwards, the cells were starved with culture medium without serum for 16-24 hours to synchronize the cells their cell cycle. The starvation medium was removed and cell culture medium+LNT or LNnT respectively 6′SL at various concentrations was added to the cells. The cells were treated for 72 hours. The cells were then fixated and immunolabeled with antibodies specific for collagen 1. These labeled cells were analyzed using flow cytometry and compared to the untreated ones (medium without LNT respectively LNnT or 6′SL).

Structure (SMILES) | Collagen 1 expression relative to untreated (%) (0.05 μM) | Collagen 1 expression relative to untreated (%) (0.10 μM) | Collagen 1 expression relative to untreated (%) (1.00 μM) | Collagen 1 expression relative to untreated (%) (50 μM) | Collagen 1 expression relative to untreated (%) (100 μM) | effect on collagen type 1 (result in words) | Collagen 1 expression relative to untreated (%) (0.50 μM)
CC(=O)N[C@H]1[C@H](O[C@H]2[C@@H](O)[C@@H](CO)O[C@@H](O[C@H]3[C@H](O)[C@@H](O)C(O)O[C@@H]3CO)[C@@H]2O)O[C@H](CO)[C@@H](O[C@@H]2O[C@H](CO)[C@H](O)[C@H](O)[C@H]2O)[C@@H]1O (mixture of isomers) [LNnT, lacto-N-neotetraose] | 117 | 129 | 167 | 172 | 177 | most active in inducing collagen synthesis; also recorded: increase collagen expression | –
CC(=O)N[C@H]1[C@H]([C@H](O)[C@H](O)CO)O[C@@](OC[C@H]2O[C@@H](O[C@H]3[C@H](O)[C@@H](O)[C@H](O)O[C@@H]3CO)[C@H](O)[C@@H](O)[C@H]2O)(C(=O)O)C[C@@H]1O [6′SL, 6′-silalyllactose, reference compound] | – | 103 | 121 | 100 | – | much smaller effect | –
CC(=O)N[C@H]1[C@H](O[C@H]2[C@@H](O)[C@@H](CO)O[C@@H](O[C@H]3[C@H](O)[C@@H](O)C(O)O[C@@H]3CO)[C@@H]2O)O[C@H](CO)[C@@H](O)[C@@H]1O[C@@H]1O[C@H](CO)[C@H](O)[C@H](O)[C@H]1O (stereo partly drawn) [LNT, lacto-N-tetraose] | – | – | 159 | 164 | 163 | increase collagen expression | 139
